Measurements taken from patent US20090209577A1, “Novel Triazolopyridine Compounds” (PFIZER INC., priority 2004, published 2009).
Counter-ions that a name gives are not always drawn.

target: T1, human p38 kinase alpha (Homo sapiens, UniProt Q16539); experiment: p38 kinase in vitro assay (PHAS-I / 32P-ATP format or EGFRP / 33P-ATP format); assay type: biochemical; settings: activated human p38 kinase alpha, 50 μM unlabeled ATP; two assay formats, table does not say which
T1 construct: The coding region of the human p38a cDNA was obtained by PCR-amplification from RNA isolated from the human monocyte cell line THP.1; made in house; host or cells: E. coli DH10B
T1 sequence (Q16539 whole entry): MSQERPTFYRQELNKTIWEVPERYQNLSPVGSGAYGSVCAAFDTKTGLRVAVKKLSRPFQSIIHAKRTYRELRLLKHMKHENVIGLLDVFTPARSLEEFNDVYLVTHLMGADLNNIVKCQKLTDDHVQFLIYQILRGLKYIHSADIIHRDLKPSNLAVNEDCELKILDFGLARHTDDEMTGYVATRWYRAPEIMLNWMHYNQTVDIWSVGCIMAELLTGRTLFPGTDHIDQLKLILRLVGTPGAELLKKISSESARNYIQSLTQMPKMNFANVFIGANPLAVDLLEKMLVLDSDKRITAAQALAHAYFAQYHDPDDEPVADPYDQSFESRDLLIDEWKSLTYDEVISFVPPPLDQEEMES
Method: The ability of compounds to inhibit human p38 kinase alpha was evaluated using two in vitro assay methods. In the first method, activated human p38 kinase alpha phosphorylates a biotinylated substrate, PHAS-I (phosphorylated heat and acid stable protein-insulin inducible), in the presence of gamma ^32P-ATP (^32P-ATP). PHAS-I was biotinylated prior to the assay and provides a means of capturing the substrate, which is phosphorylated during the assay. p38 Kinase was activated by MKK6. Compounds were tested in 10 fold serial dilutions over the range of 100 μM to 0.001 μM using 1% DMSO. Each concentration of inhibitor was tested in triplicate.
All reactions were carried out in 96 well polypropylene plates. Each reaction well contained 25 mM HEPES pH 7.5, 10 mM magnesium acetate and 50 μM unlabeled ATP. Activation of p38 was required to achieve sufficient signal in the assay. Biotinylated PHAS-1 was used at 1-2 μg per 50 μl reaction volume, with a final concentration of 1.5 μM. Activated human p38 kinase alpha was used at 1 μg per 50 μl reaction volume representing a final concentration of 0.3 μM. Gamma ^32P-ATP was used to follow the phosphorylation of PHAS-1. ^32P-ATP has a specific activity of 3000 Ci/mmol and was used at 1.2 μCi per 50 μl reaction volume. The reaction proceeded either for one hour or overnight at 30° C.
Following incubation, 20 μl of reaction mixture was transferred to a high capacity streptavidin coated filter plate (SAM-streptavidin-matrix, Promega) prewetted with phosphate buffered saline. The transferred reaction mix was allowed to contact the streptavidin membrane of the Promega plate for 1-2 minutes. Following capture of biotinylated PHAS-1 with ^32P incorporated, each well was washed to remove unincorporated ^32P-ATP three times with 2M NaCl, three washes of 2M NaCl with 1% phosphoric, three washes of distilled water and finally a single wash of 95% ethanol. Filter plates were air-dried and 20 μl of scintillant was added. The plates were sealed and counted.
A second assay format was also employed that is based on p38 kinase alpha induced phosphorylation of EGFRP (epidermal growth factor receptor peptide, a 21 mer) in the presence ^33P-ATP. Compounds were tested in 10 fold serial dilutions over the range of 100 μM to 0.001 μM in 1% DMSO. Each concentration of inhibitor was tested in triplicate. Compounds were evaluated in 50 μl reaction volumes in the presence of 25 mM Hepes pH 7.5, 10 mM magnesium acetate, 4% glycerol, 0.4% bovine serum albumin, 0.4 mM DTT, 50 μM unlabeled ATP, 25 μg EGFRP (200 μM), and 0.05 μCi ^33P-ATP. Reactions were initiated by addition of 0.09 μg of activated, purified human GST-p38 kinase alpha. Activation was carried out using GST-MKK6 (5:1, p38:MKK6) for one hour at 30° C. in the presence of 50 μM ATP. Following incubation for 60 minutes at room temperature, the reaction was stopped by addition of 150 μl of AG 1×8 resin in 900 mM sodium formate buffer, pH 3.0 (1 volume resin to 2 volumes buffer). The mixture was mixed three times with pipetting and the resin was allowed to settle. A total of 50 μl of clarified solution head volume was transferred from the reaction wells to Microlite-2 plates. 150 μl of Microscint 40 was then added to each well of the Microlite plate, and the plate was sealed, mixed, and counted.
The above protocol assays were used to determine the IC50 values for compounds in Examples 1-71 above.

| SMILES | IC50 [µM] |
| --- | --- |
| CC(C)c1nnc2ccc([C@@H]3C[C@@H]3c3ccc(F)cc3F)cn12 (racemic) [Example 3, Racemic 6-[2-(2,4-difluorophenyl)cyclopropyl]-3-isopropyl[1,2,4]triazolo[4,3-a]pyridine] | 16.9 |
| COC(=O)c1ccc(C)c(-c2nnc3n2CC(CCc2ccc(F)cc2F)CC3)c1 (racemic) [Example 18, racemic methyl 3-{6-[2-(2,4-difluorophenyl)ethyl]-5,6,7,8-tetrahydro[1,2,4]triazolo[4,3-a]pyridin-3-yl}-4-methylbenzoate] | 0.107 |
| Cc1ccc(C(=O)O)cc1-c1nnc2n1CC(CCc1ccc(F)cc1F)CC2 (racemic) [Example 19, racemic 3-{6-[2-(2,4-difluorophenyl)ethyl]-5,6,7,8-tetrahydro[1,2,4]triazolo[4,3-a]pyridin-3-yl}-4-methylbenzoic acid] | 7.55 |
| Cc1ccc(C(N)=O)cc1-c1nnc2n1CC(CCc1ccc(F)cc1F)CC2 (racemic) [Example 20, racemic 3-{6-[2-(2,4-difluorophenyl)ethyl]-5,6,7,8-tetrahydro[1,2,4]triazolo[4,3-a]pyridin-3-yl}-4-methylbenzamide] | 1.27 |
| OCC(O)c1ccc(-c2nnc3ccc(Sc4ccc(F)cc4F)cn23)cc1 (racemic) [Example 31, racemic-1-(4-{6-[(2,4-difluorophenyl)thio][1,2,4]triazolo[4,3-a]pyridin-3-yl}phenyl)ethane-1,2-diol hydrochloride] | 0.0053 |
| CC(C)c1nnc2ccc(Cc3ccc(F)cc3F)cn12 [8 (step 1), 6-(2,4-difluorobenzyl)-3-isopropyl[1,2,4]triazolo[4,3-a]pyridine] | 0.0261 |
| CC(C)(C)c1nnc2ccc(C(O)c3ccc(F)cc3F)cn12 (stereo not drawn) [15 (step 1), (3-tert-butyl[1,2,4]triazolo[4,3-a]pyridin-6-yl)(2,4-difluorophenyl)methanol] | 0.319 |
| C=CCC(C)(C)c1nnc2ccc(Sc3ccc(F)cc3F)cn12 [33 (step 2), 6-[(2,4-difluorophenyl)thio]-3-(1,1-dimethylbut-3-enyl)[1,2,4]triazolo[4,3-a]pyridine hydrochloride] | 0.0163 |
| CC1(C)OCC(CC(C)(C)c2nnc3ccc(Sc4ccc(F)cc4F)cn23)O1 (stereo not drawn) [33 (step 3), 6-[(2,4-difluorophenyl)thio]-3-[2-(2,2-dimethyl-1,3-dioxolan-4-yl)-1,1-dimethylethyl][1,2,4]triazolo[4,3-a]pyridine hydrochloride] | 0.698 |
| CC(C)c1nnc2ccc(Sc3ccc(F)cc3F)cn12 [34 (step 1), 6-[(2,4-difluorophenyl)thio]-3-isopropyl[1,2,4]triazolo[4,3-a]pyridine hydrochloride] | 0.0793 |
| COC(=O)c1ccc(C)c(-c2nnc3ccc(Br)cn23)c1 [41 (step 2), methyl 3-(6-bromo[1,2,4]triazolo[4,3-a]pyridin-3-yl)-4-methylbenzoate] | 12.9 |
| COC(=O)c1ccc(C)c(-c2nnc3ccc(Sc4ccc(F)cc4F)cn23)c1 [41 (step 3), methyl 3-{6-[(2,4-difluorophenyl)thio][1,2,4]triazolo[4,3-a]pyridin-3-yl}-4-methylbenzoate] | 0.0078 |
| Cc1ccc(C(=O)O)cc1-c1nnc2ccc(Sc3ccc(F)cc3F)cn12 [41 (step 4), 3-{6-[(2,4-difluorophenyl)thio][1,2,4]triazolo[4,3-a]pyridin-3-yl}-4-methylbenzoic acid hydrochloride] | 2.92 |
| CC(=O)OCC(=O)N1CCC(c2nnc3ccc(Sc4ccc(F)cc4F)cn23)CC1 [44 (step 4), 2-(4-{6-[(2,4-difluorophenyl)thio][1,2,4]triazolo[4,3-a]pyridin-3-yl}piperidin-1-yl)-2-oxoethyl acetate hydrochloride] | 0.367 |
| Cc1cc(Br)ccc1-c1nnc2ccc(Sc3ccc(F)cc3F)cn12 [45 (step 2), 3 (4-bromo-2-methylphenyl)-6-[(2,4-difluorophenyl)thio][1,2,4]triazolo[4,3-a]pyridine hydrochloride] | 0.141 |
| C=Cc1ccc(-c2nnc3ccc(Sc4ccc(F)cc4F)cn23)c(C)c1 [45 (step 3), 6-[(2,4-difluorophenyl)thio]-3-(2-methyl-4-vinylphenyl)[1,2,4]triazolo[4,3-a]pyridine hydrochloride] | 0.106 |
| Cc1cc(C(O)CO)ccc1-c1nnc2ccc(Sc3ccc(F)cc3F)cn12 (stereo not drawn) [45 (step 4), 1-(4-{6-[(2,4-difluorophenyl)thio][1,2,4]triazolo[4,3-a]pyridin-3-yl}-3-methylphenyl)ethane-1,2-diol hydrochloride] | 0.0283 |
| C=Cc1ccc(-c2nnc3ccc(Cc4ccc(F)cc4F)cn23)cc1 [62 (step 2), 6-(2,4-difluorobenzyl)-3-(4-vinylphenyl)[1,2,4]triazolo[4,3-a]pyridine] | 2.29 |
| CC(C)c1nnc2ccc(/C=C\c3ccc(F)cc3F)cn12 [Example 1, 6-[(Z)-2-(2,4-difluorophenyl)vinyl]-3-isopropyl[1,2,4]triazolo[4,3-a]pyridine] | 0.535 |
| CC(C)c1nnc2ccc(CCc3ccc(F)cc3F)cn12 [Example 2, 6-[2-(2,4-difluorophenyl)ethyl]-3-isopropyl[1,2,4]triazolo[4,3-a]pyridine] | 0.085 |
| CC(=O)c1ccc2nnc(C(C)C)n2c1 [Example 4, 1-(3-isopropyl[1,2,4]triazolo[4,3-a]pyridin-6-yl)ethanone] | > 100 |
| CC(C)c1nnc2ccc(C(=O)Cc3ccc(F)cc3F)cn12 [Example 5, 2-(2,4-difluorophenyl)-1-(3-isopropyl[1,2,4]triazolo[4,3-a]pyridin-6-yl)ethanone] | 7.37 |
| CC(C)c1nnc2ccc(COCc3ccc(F)cc3F)cn12 [Example 6, 6-{[(2,4-difluorobenzyl)oxy]methyl}-3-isopropyl[1,2,4]triazolo[4,3-a]pyridine] | > 100 |
| CC(C)c1nnc2ccc(-c3cnn(Cc4ccccc4)c3)cn12 [Example 7, 6-(1-benzyl-1H-pyrazol-4-yl)-3-isopropyl[1,2,4]triazolo[4,3-a]pyridine] | > 100 |
| CC(C)c1nnc2n1CC(Cc1ccc(F)cc1F)CC2 (stereo not drawn) [Example 8, 6-(2,4-difluorobenzyl)-3-isopropyl-5,6,7,8-tetrahydro[1,2,4]triazolo[4,3-a]pyridine hydrochloride] | 5.59 |
| CC(C)c1nnc2ccc(Cc3ccc(Cl)nc3)cn12 [Example 9, 6-[(6-chloropyridin-3-yl)methyl]-3-isopropyl[1,2,4]triazolo[4,3-a]pyridine] | 53.3 |
| CC(C)(C)c1nnc2ccc(Cc3ccc(Cl)nc3)cn12 [Example 10, 3-tert-butyl-6-[(6-chloropyridin-3-yl)methyl][1,2,4]triazolo[4,3-a]pyridine] | 21.6 |
| CC(C)c1nnc2ccc(C(=O)Nc3ccc(F)cc3F)cn12 [Example 11, N-(2,4-difluorophenyl)-3-isopropyl[1,2,4]triazolo[4,3-a]pyridine-6-carboxamide] | > 100 |
| CC(C)(C)c1nnc2ccc(OCc3ccc(F)cc3F)cn12 [Example 12, 3-tert-butyl-6-[(2,4-difluorobenzyl)oxy][1,2,4]triazolo[4,3-a]pyridine] | 19.5 |
| CC(C)(C)c1nnc2ccc(O)c(Cc3ccc(F)cc3F)n12 [Example 13, 3-tert-butyl-5-(2,4-difluorobenzyl)[1,2,4]triazolo[4,3-a]pyridin-6-ol] | > 100 |
